Laboratory results from US6472351B1, “Herbicide” (Barrier Biotech Limited, priority 1998, dated 2002).

System: ragwort
Experiment: Replicated field trials 1997, ragwort control 0-10 score versus 2,4-D (Example 3)
Assay type: in vivo, Senecio Jacobaea
Conditions: for 0-10 Score, 0 = No Control; T1 + 42 / 0-10 Score, 0 = No Control; T1 + 14 / 0-10 Score, 0 = No Control; T1 + 28 / 0-10 Score, 0 = No Control; T1 + 1 / 0-10 Score, 0 = No Control; T1 + 7: l/ha 2,4-D standard; for 0-10 Score, 0 = No Control; T1 + 42: scored 02/09/97; for 0-10 Score, 0 = No Control; T1 + 28: scored 19/08/97
Experimental: In 1997 properly replicated field evaluations of the efficacy of the composition according to the invention as a herbicide were carried out and 3 trial sites were located where the composition was tested against the standard product, 2, 4-D applied at a dose of 3.0 l/ha to individual plants. The trials were designed as a randomised complete block but within each “plot” area, 10 ragwort plants for each growth stage (rosette & flowing stems) were tagged with numbered markers and these were treated with the appropriate compound. […] This method reduced the risk of excessive run-off if eight squirts had been applied in a single application. […] As with the larger plants in the laboratory tests, some degree of re-growth was noted on a few of the treated plants. After the last assessments had been made, some of these plants were retreated with a second application of BH 99 and the effect was compared with untreated plants after a further 4 weeks which data is presented in the results section below.
In all evaluations the composition BH 99 was used comprising:
was applied to plants using the same equipment. The ready-mixed formulated product was contained in a 5 liter polyethylene bottle to which was fitted with a Frapak CHS-5A trigger sprayer and dip tube. This equipment delivers 2.4 mls of spray for each full squeeze of the trigger and provides a very convenient method of application.
In the replicated field trials in 1997, the 2, 4-D treatments were applied using a Hardy (backpack) small plot sprayer fitted with a lance carrying a single F110-03 nozzle. Individual plants were sprayed at a forward speed of 1.6 m/s and a pressure of 2 bar to give an application volume of 200 l/ha. Dose of 2, 4-D applied by this method was 3.0 l/ha.
Replicated Field Trials, 1997: The efficacy of BH 99 was tested against ragwort at the rosette and flowering stages at Shropham and Barnham sites but only against the rosette stage at Hockham since no flowering stems were presented.

[1] = Barnham, Flower, applied T1 23/07/97
[2] = Barnham, Rosette, applied T1 23/07/97
[3] = Hockham, Rosette, applied T1 25/07/97
[4] = flowering stage, standard at 3.0 l/ha, mean of n = 2 sites, 0-10 score
[5] = rosette stage, standard at 3.0 l/ha, mean of n = 3 sites, 0-10 score

## O=C(O)COc1ccc(Cl)cc1Cl [2,4-D, 2,4-D]
3.0 l/ha, days after application
  Time until full activity manifest: 42 days
[1]
  0-10 Score, 0 = No Control; T1 + 42: 9.4
  0-10 Score, 0 = No Control; T1 + 28: 8.9
Barnham, Flower, applied T1 23/07/97, scored 08/08/97
  0-10 Score, 0 = No Control; T1 + 14: 7.3
Barnham, Flower, applied T1 23/07/97, scored 24/07/97
  0-10 Score, 0 = No Control; T1 + 1: 0.3
Barnham, Flower, applied T1 23/07/97, scored 30/07/97
  0-10 Score, 0 = No Control; T1 + 7: 1
[2]
  0-10 Score, 0 = No Control; T1 + 42: 9.9
  0-10 Score, 0 = No Control; T1 + 28: 9.1
Barnham, Rosette, applied T1 23/07/97, scored 08/08/97
  0-10 Score, 0 = No Control; T1 + 14: 4.8
Barnham, Rosette, applied T1 23/07/97, scored 24/07/97
  0-10 Score, 0 = No Control; T1 + 1: 0.1
Barnham, Rosette, applied T1 23/07/97, scored 30/07/97
  0-10 Score, 0 = No Control; T1 + 7: 0.8
Hockham, Rosette, applied T1 25/07/97, scored 01/08/97
  0-10 Score, 0 = No Control; T1 + 7: 0.4
[3]
  0-10 Score, 0 = No Control; T1 + 42: 9.8
  0-10 Score, 0 = No Control; T1 + 28: 5.2
Hockham, Rosette, applied T1 25/07/97, scored 07/08/97
  0-10 Score, 0 = No Control; T1 + 14: 0.8
Hockham, Rosette, applied T1 25/07/97, scored 26/07/97
  0-10 Score, 0 = No Control; T1 + 1: 0.1
[4]
  Mean Score for Ragwort Control When Treated at the Flowering Stage, 1 DAT: 0.3
  Mean Score for Ragwort Control When Treated at the Flowering Stage, 7 DAT: 0.8
  Mean Score for Ragwort Control When Treated at the Flowering Stage, 14 DAT: 4.9
  Mean Score for Ragwort Control When Treated at the Flowering Stage, 28 DAT: 7.4
  Mean Score for Ragwort Control When Treated at the Flowering Stage, 42 DAT: 8.4
[5]
  Mean Score for Ragwort Control When Treated at the Rossette Stage, 1 DAT: 0.1
  Mean Score for Ragwort Control When Treated at the Rossette Stage, 7 DAT: 0.5
  Mean Score for Ragwort Control When Treated at the Rossette Stage, 14 DAT: 2.1
  Mean Score for Ragwort Control When Treated at the Rossette Stage, 28 DAT: 6.9
  Mean Score for Ragwort Control When Treated at the Rossette Stage, 42 DAT: 9.4
